US20130095174A1, “Compositions and Methods for Transmucosal Delivery of Lofexidine” (US WORLDMEDS, LLC, priority 2008, published 2013)

Assay: In vivo absorption of lofexidine from the sublingual cavity (pharmacokinetics, sublingual vs intravenous)
Parameters: species or system rabbit
Experimental: These experiments determine the bioavailability of lofexidine after transmucosal administration to the sublingual tissue in rabbit and compare it to that after intravenous administration.
The transmucosal absorption of lofexidine was measured using an in vivo technique in rabbits. Following introduction of lidocaine local anesthesia, a catheter was placed in the marginal ear artery of the rabbit for blood sample collection. For intravenous administration, a catheter was placed in the marginal ear vein of the rabbit and lofexidine hydrochloride aqueous solution (0.1 mL) was administered; a sterile drug solution was prepared by filtration (double 0.22 μm filters). A dose of 1 mg/kg lofexidine was injected into the marginal ear vein cannula followed by a 0.1 mL flush with 10% (v/v) heparin/normal saline solution to keep the cannula patent.
For sublingual administration, the lofexidine dose (1 mg/kg, 0.1 mL) of the lofexidine formulation was applied to the sublingual mucosa of the rabbit.
Aliquot parts of 1 mL blood samples were collected at predetermined time points, collected into pre-heparinized tubes and immediately placed on ice. Plasma was separated by centrifugation at 3000 rpm for 10 min, placed in polypropylene tubes, and frozen at −20° C. until the time of analysis.
Bioavailability of sublingually administered drug was calculated by comparing the plasma drug concentration between sublingual and intravenous delivery routes and expressed as a percentage of the intravenous bioavailability.
The formulation instilled into the sublingual area of the rabbits in this experiment had the following composition: • Lofexidine hydrochloride 6000 mg • Isopropanol 2 mL • Phosphate buffer (0.05 M, pH 6)
The lofexidine is dissolved in the isopropanol and the phosphate buffer to make the volume up to 200 mL.
The internal standard (IS) solution was prepared by dissolving d^4-lofexidine in a methanol:water (50:50) mixture to get a (1000 ng/mL) concentration. Plasma samples (50 μL) were spiked with IS solution (10 μL), followed by vortex mixing for 1 minute. The mixture was mixed with acetonitrile (50 μL) to precipitate plasma proteins and allowed to vortex for another minute. After centrifugation for 10 minute at 10,000 rpm, the supernatant was collected into HPLC vials in preparation for analysis by Ultra Performance Liquid Chromatography Mass Spectroscopy (UPLC/MS) system.
All analytical procedures were performed using a Waters Acquity® Ultra UPLC/MS. An Acquity UPLC BEH Shield RP18 (2.1×100 mm) column (Waters) was used to separate the chemical components at 40° C. The flow rate was 0.3 mL/min of two mobile phases, (A) made of 5 mM ammonium acetate (pH 4) and acetonitrile (90:10) and (B) of acetonitrile, 5 mM ammonium acetate (pH 4) (90:10). The mass spectrometer was operated in the positive electrospray ionization (ESI) mode. The capillary voltage and cone voltage were maintained at 0.6 kV and 35 V, respectively. The source temperature and desolvation temperature were set at 100 and 350° C., respectively. Nitrogen was used as both the cone gas (50 L/h) and the desolvation gas (700 L/h). Mass chromatograms and mass spectral data were acquired and processed by MassLynx software (Waters).

[1] = rabbit, sublingual administration, 1 mg/kg single dose, rabbits (n = 3), plasma, average

- bioavailability (rabbit, other: sublingual (transmucosal), sublingual vs intravenous, 1 mg/kg, rabbits, from areas under the plasma concentration versus time curves, read-out: bioavailability (of the administered dose, relative to intravenous)): ~80%
- Tmax (rabbit, sublingual administration, 1 mg/kg single dose, rabbits (n = 3), plasma): 10 min
- Cmax [1]: 392 ± 127 ng/mL
- half-life [1]: 75 ± 2.7 min
- time of peak plasma concentration following transmucosal administration (sublingual route, 1 mg/kg, rabbits): approximately 10 minutes
- absorption following transmucosal administration through the sublingual route (sublingual, 1 mg/kg, rabbits, comparing AUCs with intravenous): rapidly and completely absorbed
Compound: CC(Oc1c(Cl)cccc1Cl)C1=NCCN1 (stereo not drawn) [lofexidine, 2-[1-(2,6 dichlorophenoxy)ethyl]-4,5-dihydro-1H-Imidazole]
